Drawing on patent publication US9999622B2, “Pyrazolothiazole compound and medicine comprising same” (NIPPON SHINYAKU CO., LTD., priority 2014, dated 2018), this text covers IC50 for 15 molecules.

The structures appear in SMILES notation.

Holding throughout (format): biochemical
One experiment concerns the target T1, JAK3 (Homo sapiens, UniProt P52333).
T1 construct: purchased Carna Biosciences, Inc
T1 sequence (P52333 1-1124): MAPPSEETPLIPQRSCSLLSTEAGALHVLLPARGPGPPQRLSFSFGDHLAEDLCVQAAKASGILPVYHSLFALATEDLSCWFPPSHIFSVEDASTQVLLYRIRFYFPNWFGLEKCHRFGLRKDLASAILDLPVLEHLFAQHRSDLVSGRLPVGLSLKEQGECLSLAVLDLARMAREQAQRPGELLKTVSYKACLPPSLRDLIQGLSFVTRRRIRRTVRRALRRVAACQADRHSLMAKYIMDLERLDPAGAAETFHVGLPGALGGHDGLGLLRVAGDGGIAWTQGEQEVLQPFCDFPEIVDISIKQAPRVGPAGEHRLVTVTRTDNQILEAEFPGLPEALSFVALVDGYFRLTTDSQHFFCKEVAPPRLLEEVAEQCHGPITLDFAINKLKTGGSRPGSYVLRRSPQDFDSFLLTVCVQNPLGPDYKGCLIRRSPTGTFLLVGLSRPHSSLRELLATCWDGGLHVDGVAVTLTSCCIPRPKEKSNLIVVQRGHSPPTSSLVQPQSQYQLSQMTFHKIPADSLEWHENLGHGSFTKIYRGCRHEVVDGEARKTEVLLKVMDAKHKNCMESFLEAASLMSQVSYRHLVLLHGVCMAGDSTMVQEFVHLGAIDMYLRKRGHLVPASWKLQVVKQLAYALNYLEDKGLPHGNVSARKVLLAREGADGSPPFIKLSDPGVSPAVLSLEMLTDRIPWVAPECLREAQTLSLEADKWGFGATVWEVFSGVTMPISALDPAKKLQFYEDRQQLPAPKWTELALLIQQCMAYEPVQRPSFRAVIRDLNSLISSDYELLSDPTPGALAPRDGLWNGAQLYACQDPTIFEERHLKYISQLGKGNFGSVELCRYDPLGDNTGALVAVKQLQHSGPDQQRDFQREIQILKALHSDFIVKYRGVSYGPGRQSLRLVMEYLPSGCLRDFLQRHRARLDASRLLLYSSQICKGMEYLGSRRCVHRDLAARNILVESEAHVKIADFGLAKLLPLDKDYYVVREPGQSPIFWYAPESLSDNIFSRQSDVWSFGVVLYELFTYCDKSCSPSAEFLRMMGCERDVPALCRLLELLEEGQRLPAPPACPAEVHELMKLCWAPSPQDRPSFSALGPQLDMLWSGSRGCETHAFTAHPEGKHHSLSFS
Put plainly: JAK tyrosine kinase inhibitory activity in the presence of 1 mM ATP (ELISA), JAK3. As to the method:
(§1) 1. Preparation of Test Compound
(§2) The test compound was dissolved in dimethyl sulfoxide (DMSO) to 10 mM and further diluted with DMSO to the concentrations of 1000, 100, 10, 1, 0.1 and 0.01 μM, respectively. For JAK1, these solutions of the test compound at the six concentrations 10 mM, 1000 μM, 100 μM, 10 μM, 1 μM and 0.1 μM were used. For JAK2 and JAK3, these solutions of the test compound at the six concentrations 1000 μM, 100 μM, 10 μM, 1 μM, 0.1 μM and 0.01 μM were used. The test compound solutions were diluted further to 20-fold with an assay buffer to obtain a sample solution. 15 mM Tris-HCl (pH7.5), 0.01 (v/v) % Tween-20 and 1 mM dithiothreitol were used as an assay buffer. DMSO was diluted to 20-fold with the assay buffer and was used as a negative control.
(§3) 2. JAK Tyrosine Kinase Inhibitory Activity in the Presence of 1 mM Atp
(§4) The activity was determined by ELISA method. Each of the sample solutions was added to a streptavidine coated 96-well plate (DELFIA Strip Plate 8×12 well, PerkinElmer) at 10 μL/well (n=2). […] Finally, JAK tyrosine kinase (Carna Biosciences, Inc.), which was previously diluted with the assay buffer to 7.5 nM for JAK1 and 0.75 nM for JAK2 and JAK3, was added to the plate at 20 μL/well, and the plate was incubated at 30° C. for 1 h. The plate was washed four times with buffer (50 mM Tris-HCl (pH 7.5), 150 mM NaCl, 0.02 (v/v) % Tween-20). A blocking buffer (0.1% Bovine Serum Albumin, 50 mM Tris-HCl (pH 7.5), 150 mM NaCl, 0.02 (v/v) % Tween-20) was added to the plate at 150 μL/well and the plate was blocked at 30° C. for 1 h. The blocking buffer was removed, and a horse radish peroxidase-labeled anti-phosphorylated tyrosine antibody (BD Biosciences, Inc.) (diluted to 10000-fold with the blocking buffer) was added to the plate at 100 μL/well, and the plate was incubated at 30° C. for 30 min. The plate was washed with the washing buffer four times, and 3,3′,5,5′-tetramethylbenizidine solution (Nacalai Tesque) was added to the plate at 100 μL/well to develop the color for 10 minutes. To the plate was added 0.1 M sulfuric acid at 100 μL/well to stop the reaction. The absorbance at 450 nm was measured using a microplate reader (BIO-RAD).
(§5) 3. Analysis of the Results
On the technique in general: An ELISA detects its analyte on a solid surface through an enzyme-linked reagent.

The target in the next experiment is T2, JAK1 (Homo sapiens, UniProt P23458).
T2 construct: purchased Carna Biosciences, Inc
Put plainly: JAK tyrosine kinase inhibitory activity in the presence of 1 mM ATP (ELISA), JAK1. As to the method: as §1, §2, §3, §4, §5

The next experiment concerns the target T3, JAK2 (Homo sapiens, UniProt O60674).
T3 construct: purchased Carna Biosciences, Inc
Kind of experiment: JAK tyrosine kinase inhibitory activity in the presence of 1 mM ATP (ELISA), JAK2. As to the method: as §1, §2, §3, §4, §5

T3 sequence (O60674 whole entry): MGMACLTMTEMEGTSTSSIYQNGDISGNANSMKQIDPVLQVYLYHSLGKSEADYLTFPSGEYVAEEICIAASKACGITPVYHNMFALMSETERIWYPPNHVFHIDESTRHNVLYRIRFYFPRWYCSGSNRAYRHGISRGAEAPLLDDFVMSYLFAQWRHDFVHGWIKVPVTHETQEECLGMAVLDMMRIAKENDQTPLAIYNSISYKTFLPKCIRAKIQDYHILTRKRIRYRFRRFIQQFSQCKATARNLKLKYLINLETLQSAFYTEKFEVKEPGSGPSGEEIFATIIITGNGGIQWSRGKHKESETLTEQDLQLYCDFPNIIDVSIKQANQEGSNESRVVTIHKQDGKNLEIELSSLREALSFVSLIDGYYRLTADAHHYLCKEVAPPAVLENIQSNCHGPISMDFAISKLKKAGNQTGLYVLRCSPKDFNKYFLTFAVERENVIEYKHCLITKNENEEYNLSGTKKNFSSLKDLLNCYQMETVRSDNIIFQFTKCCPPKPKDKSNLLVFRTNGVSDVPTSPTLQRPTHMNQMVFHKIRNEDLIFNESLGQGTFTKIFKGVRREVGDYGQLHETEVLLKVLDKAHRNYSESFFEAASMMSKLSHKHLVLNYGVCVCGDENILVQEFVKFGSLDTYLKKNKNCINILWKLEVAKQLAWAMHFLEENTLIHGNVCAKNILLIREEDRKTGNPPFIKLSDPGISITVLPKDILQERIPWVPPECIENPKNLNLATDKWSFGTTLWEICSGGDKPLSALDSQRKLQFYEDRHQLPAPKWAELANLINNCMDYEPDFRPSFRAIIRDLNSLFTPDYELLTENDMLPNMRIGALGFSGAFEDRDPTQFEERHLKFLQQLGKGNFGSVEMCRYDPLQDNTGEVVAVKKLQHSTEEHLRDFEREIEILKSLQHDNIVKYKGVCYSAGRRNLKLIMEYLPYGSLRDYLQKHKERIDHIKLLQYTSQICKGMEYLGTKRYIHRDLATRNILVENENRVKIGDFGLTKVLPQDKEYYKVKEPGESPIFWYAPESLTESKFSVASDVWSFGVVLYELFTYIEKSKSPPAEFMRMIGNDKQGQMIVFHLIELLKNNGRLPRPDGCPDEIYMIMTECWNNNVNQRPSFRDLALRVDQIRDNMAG
T2 sequence (P23458 whole entry): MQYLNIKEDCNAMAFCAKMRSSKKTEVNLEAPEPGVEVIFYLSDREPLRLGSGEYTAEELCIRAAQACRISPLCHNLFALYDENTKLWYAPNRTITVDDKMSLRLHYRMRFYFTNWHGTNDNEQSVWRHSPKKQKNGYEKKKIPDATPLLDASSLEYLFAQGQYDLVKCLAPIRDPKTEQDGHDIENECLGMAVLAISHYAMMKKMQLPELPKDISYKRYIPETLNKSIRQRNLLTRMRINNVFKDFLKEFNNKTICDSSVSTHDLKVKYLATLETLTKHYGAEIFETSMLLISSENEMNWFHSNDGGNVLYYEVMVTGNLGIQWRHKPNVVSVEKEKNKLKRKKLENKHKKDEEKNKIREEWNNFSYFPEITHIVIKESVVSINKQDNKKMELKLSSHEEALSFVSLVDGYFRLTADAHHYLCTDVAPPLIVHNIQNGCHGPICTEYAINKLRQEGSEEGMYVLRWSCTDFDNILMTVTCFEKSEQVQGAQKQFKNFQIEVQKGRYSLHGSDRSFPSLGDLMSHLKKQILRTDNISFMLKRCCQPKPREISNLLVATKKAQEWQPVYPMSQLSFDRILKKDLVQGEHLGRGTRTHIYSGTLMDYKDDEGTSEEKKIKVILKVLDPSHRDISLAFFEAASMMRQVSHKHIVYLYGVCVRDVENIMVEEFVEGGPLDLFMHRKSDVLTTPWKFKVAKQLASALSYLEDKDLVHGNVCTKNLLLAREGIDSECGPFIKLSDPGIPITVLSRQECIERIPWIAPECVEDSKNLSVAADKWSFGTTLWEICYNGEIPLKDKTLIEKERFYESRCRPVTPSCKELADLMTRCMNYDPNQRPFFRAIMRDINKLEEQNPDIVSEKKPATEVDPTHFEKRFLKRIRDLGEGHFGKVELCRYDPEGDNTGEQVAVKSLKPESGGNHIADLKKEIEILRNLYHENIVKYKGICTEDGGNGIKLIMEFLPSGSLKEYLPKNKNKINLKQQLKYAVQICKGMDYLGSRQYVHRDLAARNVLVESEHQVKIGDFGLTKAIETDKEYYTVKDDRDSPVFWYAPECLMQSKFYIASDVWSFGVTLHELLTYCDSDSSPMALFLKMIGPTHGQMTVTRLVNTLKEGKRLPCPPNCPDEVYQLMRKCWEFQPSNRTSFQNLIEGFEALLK

In general, IC50 refers to the concentration at which inhibition is half-maximal. Consider `O=C(NC1CCN(C(=O)c2cc(N[C@H]3CCC[C@@H]3OC(F)F)nc(-c3cnn4ccsc34)n2)CC1)C1CC1` [Example 14, N-(1-{[6-{[(1S,2S)-2-(Difluoromethoxy)cyclopentyl]amino}-2-(pyrazolo[5,1-b][1,3]thiazol-7-yl)pyrimidin-4-yl]carbonyl}piperidin-4-yl)cyclopropanecarboxamide], for which the IC50 amounted to 1500 nM at JAK3, 69 nM on JAK1 and 1700 nM at JAK2.
For the molecule `CC(C)(C)CNc1cc(C(=O)N2CCC(NC(=O)C3CC3)CC2)nc(-c2cnn3ccsc23)n1` [Example 15, N-[1-({6-[(2,2-Dimethylpropyl)amino]-2-(pyrazolo[5,1-b][1,3]thiazol-7-yl)pyrimidin-4-yl}carbonyl)piperidin-4-yl]cyclopropanecarboxamide], the IC50 on JAK3 amounted to 7200 nM; at JAK1 it was 110 nM; at JAK2, 2500 nM.
Taken in the same sequence, the figures for `C[C@@H](COC(F)F)Nc1cc(C(=O)N2CCC(NC(=O)C3CC3)CC2)nc(-c2cnn3ccsc23)n1` [Example 17, N-(1-{[6-{[(2S)-1-(Difluoromethoxy)propan-2-yl]amino}-2-(pyrazolo[5,1-b][1,3]thiazol-7-yl)pyrimidin-4-yl]carbonyl}piperidin-4-yl)cyclopropanecarboxamide] were 5800 nM, 230 nM and 5100 nM.
Turning to `Cc1c(N[C@@H](C)C2CC2)nc(-c2cnn3ccsc23)nc1C(=O)N1CCC(NC(=O)C(F)F)CC1` [Example 18, N-(1-{[6-{[(1S)-1-Cyclopropylethyl]amino}-5-methyl-2-(pyrazolo[5,1-b][1,3]thiazol-7-yl)pyrimidin-4-yl]carbonyl}piperidin-4-yl)-2,2-difluoroacetamide], the values for the IC50 at JAK3, on JAK1 and at JAK2 were 1700 nM, 310 nM and 2300 nM, respectively.
Taken in the same sequence, the figures for `CO[C@H]1CCC[C@@H]1Nc1cc(C(=O)N2CCC(NC(=O)C3CC3)CC2)nc(-c2cnn3ccsc23)n1` [Example 19, N-(1-{[6-{[(1S,2S)-2-Methoxycyclopentyl]amino}-2-(pyrazolo[5,1-b][1,3]thiazol-7-yl)pyrimidin-4-yl]carbonyl}piperidin-4-yl)cyclopropanecarboxamide] were 6500 nM, 710 nM and 4400 nM.
On to `CC(C)OC(=O)NC1CCN(C(=O)c2cc(N[C@H](C)C(C)(C)C)nc(-c3cnn4ccsc34)n2)CC1` [Example 29, Propan-2-yl (1-{[6-{[(2R)-3,3-dimethylbutan-2-yl]amino}-2-(pyrazolo[5,1-b][1,3]thiazol-7-yl)pyrimidin-4-yl]carbonyl}piperidin-4-yl)carbamate], for which the values for the IC50 at JAK3, on JAK1 and at JAK2 were 3000 nM, 140 nM and 1200 nM, respectively.
With `C[C@H](Nc1cc(C(=O)N2CCC(NC(=O)c3ccccc3)CC2)nc(-c2cnn3ccsc23)n1)C1CC1` [Example 30, N-(1-{[6-{[(1S)-1-Cyclopropylethyl]amino}-2-(pyrazolo[5,1-b][1,3]thiazol-7-yl)pyrimidin-4-yl]carbonyl}piperidin-4-yl)benzamide], the IC50 is greater than 10000 nM at JAK3, 110 nM on JAK1 and 1400 nM on JAK2.
As to `C[C@H](Nc1cc(C(=O)N2CCC(NC(=O)c3cccs3)CC2)nc(-c2cnn3ccsc23)n1)C1CC1` [Example 32, N-(1-{[6-{[(1S)-1-Cyclopropylethyl]amino}-2-(pyrazolo[5,1-b][1,3]thiazol-7-yl)pyrimidin-4-yl]carbonyl}piperidin-4-yl)thiophene-2-carboxamide], the IC50 at JAK3 is greater than 10000 nM; at JAK1 it was 380 nM; on JAK2, 1800 nM.
Turning to `C[C@H](Nc1cc(C(=O)N2CCC(NC(=O)NC3CC3)CC2)nc(-c2cnn3ccsc23)n1)C1CC1` [Example 34, 1-Cyclopropyl-3-(1-{[6-{[(1S)-1-cyclopropylethyl]amino}-2-(pyrazolo[5,1-b][1,3]thiazol-7-yl)pyrimidin-4-yl]carbonyl}piperidin-4-yl)urea], the IC50 at JAK3 is 3000 nM; at JAK1, 350 nM; on JAK2 it was 1900 nM.
The like results for `C[C@@H](C1CC1)N(C)c1cc(C(=O)N2CCC(Nc3ncccn3)CC2)nc(-c2cnn3ccsc23)n1` [Example 35, [6-{[(1S)-1-Cyclopropylethyl](methyl)amino}-2-(pyrazolo[5,1-b][1,3]thiazol-7-yl)pyrimidin-4-yl][4-(pyrimidin-2-ylamino)piperidin-1-yl]methanone] were, in that order, greater than 10000 nM, 270 nM and 2400 nM.
For `CC(C)(C)Nc1cc(C(=O)N2CCC(NC(=O)C3CC3)CC2)nc(-c2cnn3ccsc23)n1` [Example 36, N-(1-{[6-(tert-Butylamino)-2-(pyrazolo[5,1-b][1,3]thiazol-7-yl)pyrimidin-4-yl]carbonyl}piperidin-4-yl)cyclopropanecarboxamide], the IC50 was greater than 10000 nM on JAK3, 86 nM on JAK1 and 620 nM on JAK2.
The like results for `CC1(Nc2cc(C(=O)N3CCC(NC(=O)C4CC4)CC3)nc(-c3cnn4ccsc34)n2)CC1` [Example 37, N-[1-({6-[(1-Methylcyclopropyl)amino] 2 (pyrazolo[5,1-b][1,3]thiazol-7-yl)pyrimidin-4-yl}carbonyl)piperidin-4-yl]cyclopropanecarboxamide] were, in that order, greater than 10000 nM, 240 nM and 1600 nM.
As to `COCC(C)(C)Nc1cc(C(=O)N2CCC(NC(=O)C3CC3)CC2)nc(-c2cnn3ccsc23)n1` [Example 38, N-[1-({6-[(1-Methoxy-2-methylpropan-2-yl)amino]-2-(pyrazolo[5,1-b][1,3]thiazol-7-yl)pyrimidin-4-yl}carbonyl)piperidin-4-yl]cyclopropanecarboxamide], the IC50 on JAK3 is greater than 10000 nM; at JAK1 it was 260 nM; on JAK2, 1200 nM.
With `COC(=O)NC1CCN(C(=O)c2cc(N[C@H](C)C(C)(C)C)nc(-c3cnn4ccsc34)n2)CC1` [Example 39, Methyl (1-{[6-{[(2R)-3,3-dimethylbutan-2-yl]amino}-2-(pyrazolo[5,1-b][1,3]thiazol-7-yl)pyrimidin-4-yl]carbonyl}piperidin-4-yl)carbamate], the IC50 came out at 2900 nM at JAK3, 140 nM at JAK1 and 1300 nM at JAK2.
Consider `O=C(NC1CCN(C(=O)c2cc(OCC3CC3)nc(-c3cnn4ccsc34)n2)CC1)C1CC1` [Example 43, N-(1-{[6-(Cyclopropylmethoxy)-2-(pyrazolo[5,1-b][1,3]thiazol-7-yl)pyrimidin-4-yl]carbonyl}piperidin-4-yl)cyclopropanecarboxamide], for which the IC50 on JAK3 was greater than 10000 nM; at JAK1 it was 130 nM; at JAK2, greater than 10000 nM.
